This note sets out measurements from patent publication US10988474B2, “Compounds acting at multiple prostaglandin receptors giving a general anti-inflammatory response” (ALLERGAN, INC., priority 2011, dated 2021).

Molecules are shown by their SMILES. Some results are limits rather than exact numbers.

Usually Kb stands for the equilibrium dissociation constant of an antagonist, usually derived from a functional assay.

Common to all, as to assay type: cell-based
The target of test [1] is T1, human prostanoid EP4 receptor (Homo sapiens, UniProt P35408).
T1 construct: expressed in transfected cells
T1 sequence (P35408 whole entry): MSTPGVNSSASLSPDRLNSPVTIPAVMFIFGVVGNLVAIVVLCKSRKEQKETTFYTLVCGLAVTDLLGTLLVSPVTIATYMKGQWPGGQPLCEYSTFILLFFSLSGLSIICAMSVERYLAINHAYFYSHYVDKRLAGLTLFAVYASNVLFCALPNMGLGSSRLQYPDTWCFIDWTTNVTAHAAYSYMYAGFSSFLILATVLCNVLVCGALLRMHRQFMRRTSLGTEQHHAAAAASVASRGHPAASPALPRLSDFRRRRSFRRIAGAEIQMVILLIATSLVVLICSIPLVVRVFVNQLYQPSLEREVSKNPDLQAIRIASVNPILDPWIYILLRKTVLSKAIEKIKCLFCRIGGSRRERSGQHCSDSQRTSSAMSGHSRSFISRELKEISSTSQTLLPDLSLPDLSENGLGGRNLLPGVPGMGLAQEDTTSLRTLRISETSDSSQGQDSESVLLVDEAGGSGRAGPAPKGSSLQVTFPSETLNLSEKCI
The test can be described thus: FLIPR Ca2+ signaling PG antagonist assay, EP4 stable cell line. The conditions noted are these: HEK-293 EBNA cells, human recombinant EP4 with chimeric Gqs; standard agonist PGE2. In a few lines: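 Antagonism at human EP4 was assessed as a Ca^2+ signal in stable HEK-293 EBNA transfectants carrying chimeric Gqs. Dye-loaded cells in HBSS-HEPES at 37° C received test compound, then a 7-point 10-fold PGE2 series. Fluorescence was excited at 470-495 nm and read at 515-575 nm for 3.5 minutes, with each condition run in triplicate and buffer used as the negative control.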

Test [2] concerns the target T2, human prostanoid EP1 receptor (Homo sapiens, UniProt P34995).
T2 construct: expressed in transfected cells
T2 sequence (P34995 1-402): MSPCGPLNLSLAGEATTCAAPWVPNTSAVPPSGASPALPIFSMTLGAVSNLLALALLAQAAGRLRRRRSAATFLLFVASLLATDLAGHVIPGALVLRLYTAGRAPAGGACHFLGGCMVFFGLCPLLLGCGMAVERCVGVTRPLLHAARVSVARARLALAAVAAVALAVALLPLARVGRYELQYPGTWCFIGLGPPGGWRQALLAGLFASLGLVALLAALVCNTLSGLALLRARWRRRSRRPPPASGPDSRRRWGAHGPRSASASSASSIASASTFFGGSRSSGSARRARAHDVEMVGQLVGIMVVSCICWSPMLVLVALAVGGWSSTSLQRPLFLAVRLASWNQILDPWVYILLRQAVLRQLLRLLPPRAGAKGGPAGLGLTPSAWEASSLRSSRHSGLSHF
The test can be described thus: FLIPR Ca2+ signaling PG antagonist assay, EP1 stable cell line. The conditions noted are these: HEK-293 EBNA cells, human recombinant EP1, no exogenous G-protein; standard agonist PGE2. In a few lines:
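HEK-293 EBNA stable lines; EP2 co-expressed with chimeric Gqs, EP1/IP/TP with no exogenous G protein. Fluo-4AM-loaded cells pretreated 4.5 min at 37 °C with compound (0.1–30 μM; TP 0.067–1 μM), then standard agonist (PGE2, cicaprost, U-46619) 10^−11–10^−5 M (TP 10^−12–10^−6 M); peak fluorescence read 3.5 min, nonlinear regression.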

Test [3] concerns the target T3, human prostanoid EP3 receptor (Homo sapiens, UniProt P43115).
T3 construct: expressed in transfected cells
T3 sequence (P43115 1-390): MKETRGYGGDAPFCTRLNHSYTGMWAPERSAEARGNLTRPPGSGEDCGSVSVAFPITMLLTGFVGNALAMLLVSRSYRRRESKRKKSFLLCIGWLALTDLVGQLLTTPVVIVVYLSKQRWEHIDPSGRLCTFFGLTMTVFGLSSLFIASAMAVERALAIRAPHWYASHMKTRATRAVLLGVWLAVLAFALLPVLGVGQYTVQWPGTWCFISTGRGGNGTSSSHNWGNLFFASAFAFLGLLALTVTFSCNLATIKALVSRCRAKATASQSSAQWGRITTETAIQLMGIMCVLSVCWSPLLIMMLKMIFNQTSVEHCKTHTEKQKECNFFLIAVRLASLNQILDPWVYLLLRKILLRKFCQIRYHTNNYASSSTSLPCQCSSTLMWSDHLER
The test can be described thus: FLIPR Ca2+ signaling PG antagonist assay, EP3 stable cell line. The conditions noted are these: HEK-293 EBNA cells, human recombinant EP3 with chimeric Gqi; standard agonist PGE2. In a few lines: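 Stable HEK-293 EBNA lines (DP1 with chimeric Gqs, EP3 with Gqi, EP1 and FP without exogenous G protein) were Fluo-4AM-loaded and pretreated 4.5 min at 37 °C with compound (0.1–30 μM). Agonist (BW 245C for DP1, PGE2 for EP1/EP3, 17-phenyl-PGF2α for FP) was then added at 10^−11–10^−5 M. Peak Ca2+ fluorescence was taken relative to agonist at 10^−6 M.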

Take `Cc1nn(Cc2cc(Br)ccc2OCC2(C)CC2)c2ccc(C(=O)O)cc12` [Example 28, 1-[5-Bromo-2-(1-Methyl-Cyclopropylmethoxy)-Benzyl]-3-Methyl-1H-Indazole-5-Carboxylic Acid]: the results for the antagonist equilibrium constant (Kb) in test [1], in test [2] and in test [3] were 40 nM, 43 nM and 2220 nM, respectively.

Consider `O=C(O)c1ccc2c(cnn2Cc2cc(Cl)ccc2OCc2ccccc2)c1` [Example 8, 1-(2-Benzyloxy-5-Chloro-Benzyl)-1H-Indazole-5-Carboxylic Acid], for which the antagonist dissociation constant (Kb) in test [1] is 1300 nM; in test [2], 220 nM; in test [3], not below 10000 nM.

Consider `CC1(COc2ccc(Br)cc2Cn2ncc3cc(C(=O)O)ccc32)CC1` [Example 19], for which the Kb in test [1] stood at 14 nM; in test [2] it was 12 nM; in test [3], 3600 nM.

As for `CC(C)COc1ccc(OC(F)(F)F)cc1Cn1ncc2cc(C(=O)O)cnc21` [Example 58, 1-(2-Isobutoxy-5-Trifluoromethoxy-Benzyl)-1H-Pyrazolo[3,4-B]Pyridine-5-Carboxylic Acid], the Kb in test [1] worked out at 380 nM; in test [2] it was 30 nM; in test [3], 9800 nM.

For `O=C(O)c1cccc2c1cnn2Cc1cc(Cl)ccc1OCc1ccc(Cl)cc1` [Example 40, 1-[5-Chloro-2-(4-Chloro-Benzyloxy)-Benzyl]-1H-Indazole-4-Carboxylic Acid], the antagonist dissociation constant (Kb) in test [1] is 2500 nM; in test [2], 60 nM; in test [3] it was not below 12000 nM.

As for `CCC(CC)COc1ccc(C(F)(F)F)cc1Cn1nc(C)c2cc(C(=O)O)ccc21` [Example 26, 1-[2-(2-Ethyl-Butoxy)-5-Trifluoromethyl-Benzyl]-3-Methyl-1H-Indazole-5-Carboxylic Acid], the results for the Kb in test [1], in test [2] and in test [3] were 70 nM, 80 nM and 3300 nM, respectively.

Regarding `O=C(O)c1ccc2cn(Cc3cc(Br)ccc3OCC3CCCC3)nc2c1` [Example 45, 2-(5-Bromo-2-Cyclopentylmethoxy-Benzyl)-2H-Indazole-6-Carboxylic Acid], the antagonist dissociation constant (Kb) in test [1] is 2000 nM; in test [2], 23 nM; in test [3] it was not below 10000 nM.

As to `O=C(O)c1ccc2cnn(Cc3cc(Br)ccc3OCC3CCCC3)c2c1` [Example 44, 1-(5-Bromo-2-Cyclopentylmethoxy-Benzyl)-1H-Indazole-6-Carboxylic Acid], the Kb was determined as 3200 nM in test [1], 240 nM in test [2] and 1600 nM in test [3].

With `CC(C)COc1ccc(Br)cc1Cn1cc2cc(C(=O)O)ccc2n1` [Example 17, 2-(5-Bromo-2-Isobutoxy-Benzyl)-2H-Indazole-5-Carboxylic Acid], the figures for the Kb in test [1], in test [2] and in test [3] were 600 nM, 40 nM and not below 10000 nM, respectively.

In the case of `O=C(O)c1ccc2c(cnn2Cc2cc(Cl)ccc2OCC2CC2)c1` [Example 11, 1-(5-Chloro-2-Cyclopropylmethoxy-Benzyl)-1H-Indazole-5-Carboxylic Acid], the values for the Kb in test [1], in test [2] and in test [3] were 110 nM, 120 nM and 6500 nM, respectively.

Turning to `CCC(CC)COc1ccc(Cl)cc1Cn1nc(C)c2cc(C(=O)O)ccc21` [Example 23, 1-[5-Chloro-2-(2-Ethyl-Butoxy)-Benzyl]-3-Methyl-1H-Indazole-5-Carboxylic Acid], the results for the Kb in test [1], in test [2] and in test [3] were 50 nM, 30 nM and 1200 nM, respectively.

In the case of `CCC(CC)COc1ccc(Br)cc1Cn1ccc2ccc(C(=O)O)cc21` [Example 70, 1-[5-Bromo-2-(2-Ethyl-Butoxy)-Benzyl]-1H-Indole-6-Carboxylic Acid], the Kb in test [1] is 6000 nM; in test [2], 200 nM; in test [3], not below 10000 nM.

Turning to `CC(C)COc1ccc(OCC(F)F)cc1Cn1ncc2cc(C(=O)O)ccc21` [Example 55, 1-[5-(2,2-Difluoro-Ethoxy)-2-Isobutoxy-Benzyl]-1H-Indazole-5-Carboxylic Acid], the results for the Kb in test [1], in test [2] and in test [3] were 2100 nM, 40 nM and not below 10000 nM, respectively.

Regarding `CC(C)COc1ccc(OC(F)F)cc1Cn1ncc2cc(C(=O)O)ccc21` [Example 56, 1-(5-Difluoromethoxy-2-Isobutoxy-Benzyl)-1H-Indazole-5-Carboxylic Acid], the antagonist equilibrium constant (Kb) worked out at 150 nM in test [1], 24 nM in test [2] and 8800 nM in test [3].

As to `CC(C)COc1ccc(C(F)(F)F)cc1Cn1ncc2cc(C(=O)O)ccc21` [Example 18], the Kb was found to be 60 nM in test [1], 40 nM in test [2] and 4000 nM in test [3].

Turning to `CCC(CC)COc1ccc(Br)cc1Cn1nc(C)c2cc(C(=O)O)cnc21` [Example 59, 1-[5-Bromo-2-(2-Ethyl-Butoxy)-Benzyl]-3-Methyl-1H-Pyrazolo[3,4-B]Pyridine-5-Carboxylic Acid], the antagonist dissociation constant (Kb) in test [1] was 190 nM; in test [2], 280 nM; in test [3] it was 5400 nM.

Take `CCC(CC)COc1ccc(Cl)cc1Cn1ccc2cc(C(=O)O)ccc21` [Example 1, 1-[5-Chloro-2-(2-Ethyl-Butoxy)-Benzyl]-1H-Indole-5-Carboxylic Acid]: the Kb in test [1] amounted to 70 nM; in test [2] it was 180 nM; in test [3], 5200 nM.

For `CC(C)COc1ccc(Cl)cc1Cn1ncc2c(C(=O)O)cccc21` [Example 36, 1-(5-Chloro-2-Isobutoxy-Benzyl)-1H-Indazole-4-Carboxylic Acid], the antagonist dissociation constant (Kb) in test [1] came out at 1200 nM; in test [2], 60 nM; in test [3], 4000 nM.

For `CC(C)COc1ccc(Br)cc1Cn1ncc2cc(C(=O)O)ccc21` [Example 4], the Kb in test [1] was 25 nM; in test [2], 6 nM; in test [3], 1500 nM.

Take `CCC(CC)COc1ccc(Br)cc1Cn1nc(C)c2cc(C(=O)O)ccc21` [Example 27, 1-[5-Bromo-2-(2-Ethyl-Butoxy)-Benzyl]-3-Methyl-1H-Indazole-5-Carboxylic Acid]: the Kb turned out to be 53 nM in test [1], 110 nM in test [2] and 2600 nM in test [3].

Take `CCC(CC)COc1ccc(Cl)cc1Cn1ncc2ccc(C(=O)O)cc21` [Example 46, 1-[5-Chloro-2-(2-Ethyl-Butoxy)-Benzyl]-1H-Indazole-6-Carboxylic Acid]: the antagonist dissociation constant (Kb) in test [1] was not below 10000 nM; in test [2], 7100 nM; in test [3], not below 10000 nM.
